Laboratory results taken from BindingDB's records for doi:10.1021/jm970389+ (Abbott Laboratories, 1998).

test: Binding potency against Platelet activating factor (PAF) receptor using [3H]C18-PAF as radioligand on rabbit platelet membranes

| Compound | Ki [nM] |
| --- | --- |
| Cc1nc2cnccc2n1Cc1ccc(C(=O)c2cn(C(=O)N(C)C)c3cccc(C(=O)N(C)C)c23)cc1 [3-[4-(2-Methyl-imidazo[4,5-c]pyridin-1-ylmethyl)-benzoyl]-indole-1,4-dicarboxylic acid bis-dimethylamide] | 11 |
| Cc1nc2cnccc2n1Cc1ccc(C(=O)c2cn(C(=O)N(C)C)c3ccccc23)cc1 [3-[4-(2-Methyl-imidazo[4,5-c]pyridin-1-ylmethyl)-benzoyl]-indole-1-carboxylic acid dimethylamide] | 6.8 |
| COC(=O)c1cccc2c1c(C(=O)c1ccc(Cn3c(C)nc4c(Cl)nccc43)cc1)cn2C(=O)N(C)C [3-[4-(4-Chloro-2-methyl-imidazo[4,5-c]pyridin-1-ylmethyl)-benzoyl]-1-dimethylcarbamoyl-1H-indole-4-carboxylic acid methyl ester] | 1.8 |
| Cc1nc2cnccc2n1CCCCCC(=O)c1cn(C(=O)N(C)C)c2cccc(-c3ccc(F)cc3)c12 [4-(4-Fluoro-phenyl)-3-[6-(2-methyl-imidazo[4,5-c]pyridin-1-yl)-hexanoyl]-indole-1-carboxylic acid dimethylamide] | 3.2 |
| Cc1nc2cnccc2n1Cc1ccc(C(=O)c2cn(C(=O)N(C)C)c3cccc(NC(=O)c4ccccc4)c23)cc1 [4-Benzoylamino-3-[4-(2-methyl-imidazo[4,5-c]pyridin-1-ylmethyl)-benzoyl]-indole-1-carboxylic acid dimethylamide] | 2 |
| Cc1nc2cnccc2n1Cc1ccc(C(=O)c2cn(C(=O)N(C)C)c3cccc(Br)c23)cc1 [4-Bromo-3-[4-(2-methyl-imidazo[4,5-c]pyridin-1-ylmethyl)-benzoyl]-indole-1-carboxylic acid dimethylamide] | 11 |
| Cc1nc2ncccc2n1Cc1ccc(C(=O)c2cn(C(=O)N(C)C)c3cccc(Cl)c23)cc1 [4-Chloro-3-[4-(2-methyl-imidazo[4,5-b]pyridin-1-ylmethyl)-benzoyl]-indole-1-carboxylic acid dimethylamide] | 0.9 |
| Cc1nc2cnccc2n1Cc1ccc(C(=O)c2cn(C(=O)N(C)C)c3cccc(Cl)c23)cc1 [4-Chloro-3-[4-(2-methyl-imidazo[4,5-c]pyridin-1-ylmethyl)-benzoyl]-indole-1-carboxylic acid dimethylamide] | 5.4 |
| CCc1cccc2c1c(C(=O)c1ccc(Cn3c(C)nc4cnccc43)cc1)cn2C(=O)N(C)C [4-Ethyl-3-[4-(2-methyl-imidazo[4,5-c]pyridin-1-ylmethyl)-benzoyl]-indole-1-carboxylic acid dimethylamide] | 0.91 |
| C#Cc1cccc2c1c(C(=O)c1ccc(Cn3c(C)nc4cnccc43)c(F)c1)cn2C(=O)NC [4-Ethynyl-3-[3-fluoro-4-(2-methyl-imidazo[4,5-c]pyridin-1-ylmethyl)-benzoyl]-indole-1-carboxylic acid methylamide] | 0.63 |
| C#Cc1cccc2c1c(C(=O)c1ccc(Cn3c(C)nc4cnccc43)cc1)cn2C(=O)N(C)C [4-Ethynyl-3-[4-(2-methyl-imidazo[4,5-c]pyridin-1-ylmethyl)-benzoyl]-indole-1-carboxylic acid dimethylamide] | 1.3 |
| C#Cc1cccc2c1c(C(O)c1ccc(Cn3c(C)nc4cnccc43)c(F)c1)cn2C(=O)N(C)C (centres undefined) [4-Ethynyl-3-{[3-fluoro-4-(2-methyl-imidazo[4,5-c]pyridin-1-ylmethyl)-phenyl]-hydroxy-methyl}-indole-1-carboxylic acid dimethylamide] | 1.5 |
| Cc1nc2cnccc2n1Cc1ccc(C(=O)c2cn(C(=O)N(C)C)c3cccc(F)c23)cc1 [4-Fluoro-3-[4-(2-methyl-imidazo[4,5-c]pyridin-1-ylmethyl)-benzoyl]-indole-1-carboxylic acid dimethylamide] | 5.1 |
| Cc1nc2cnccc2n1Cc1ccc(C(=O)c2cn(C(=O)N(C)C)c3cccc(O)c23)cc1 [4-Hydroxy-3-[4-(2-methyl-imidazo[4,5-c]pyridin-1-ylmethyl)-benzoyl]-indole-1-carboxylic acid dimethylamide] | 6.1 |
| COC(=O)c1[nH]c2cccc(OC)c2c1C(=O)c1ccc(Cn2c(C)nc3cnccc32)cc1 [4-Methoxy-3-[4-(2-methyl-imidazo[4,5-c]pyridin-1-ylmethyl)-benzoyl]-1H-indole-2-carboxylic acid methyl ester] | 0.51 |
| COc1cccc2c1c(C(=O)c1ccc(Cn3c(C)nc4cnccc43)cc1)cn2C(=O)N(C)C [4-Methoxy-3-[4-(2-methyl-imidazo[4,5-c]pyridin-1-ylmethyl)-benzoyl]-indole-1-carboxylic acid dimethylamide] | 2 |
| Cc1cccc2c1c(C(=O)c1ccc(Cn3c(C)nc4cnccc43)cc1)cn2C(=O)N(C)C [4-Methyl-3-[4-(2-methyl-imidazo[4,5-c]pyridin-1-ylmethyl)-benzoyl]-indole-1-carboxylic acid dimethylamide] | 0.82 |

| Compound | Ki [nM] |
| --- | --- |
| Cc1cccc2c1c(C(=O)CN1CCC(n3c(C)nc4cnccc43)CC1)cn2C(=O)N(C)C [4-Methyl-3-{2-[4-(2-methyl-imidazo[4,5-c]pyridin-1-yl)-piperidin-1-yl]-acetyl}-indole-1-carboxylic acid dimethylamide] | 2 |
| Cc1nc2cnccc2n1Cc1ccc(C(=O)c2cn(C(=O)N(C)C)c3ccc(-c4ccc(F)cc4)cc23)cc1 [5-(4-Fluoro-phenyl)-3-[4-(2-methyl-imidazo[4,5-c]pyridin-1-ylmethyl)-benzoyl]-indole-1-carboxylic acid dimethylamide] | 190 |
| Cc1nc2cnccc2n1CCCN(C)CC(=O)c1cn(C(=O)N(C)C)c2cc(-c3ccc(F)cc3)ccc12 [6-(4-Fluoro-phenyl)-3-(2-{methyl-[3-(2-methyl-imidazo[4,5-c]pyridin-1-yl)-propyl]-amino}-acetyl)-indole-1-carboxylic acid dimethylamide] | 140 |
| Cc1nc2cnccc2n1CC(=O)c1cn(C(=O)N(C)C)c2cc(-c3ccc(F)cc3)ccc12 [6-(4-Fluoro-phenyl)-3-[2-(2-methyl-imidazo[4,5-c]pyridin-1-yl)-acetyl]-indole-1-carboxylic acid dimethylamide] | > 1000 |
| Cc1nc2cnccc2n1Cc1cccc(C(=O)c2cn(C(=O)N(C)C)c3cc(-c4ccc(F)cc4)ccc23)c1 [6-(4-Fluoro-phenyl)-3-[3-(2-methyl-imidazo[4,5-c]pyridin-1-ylmethyl)-benzoyl]-indole-1-carboxylic acid dimethylamide] | 180 |
| Cc1nc2cnccc2n1-c1ccc(C(=O)c2cn(C(=O)N(C)C)c3cc(-c4ccc(F)cc4)ccc23)cc1 [6-(4-Fluoro-phenyl)-3-[4-(2-methyl-imidazo[4,5-c]pyridin-1-yl)-benzoyl]-indole-1-carboxylic acid dimethylamide] | 260 |
| Cc1nc2cnccc2n1C1CCN(C(=O)c2cn(C(=O)N(C)C)c3cc(-c4ccc(F)cc4)ccc23)CC1 [6-(4-Fluoro-phenyl)-3-[4-(2-methyl-imidazo[4,5-c]pyridin-1-yl)-piperidine-1-carbonyl]-indole-1-carboxylic acid dimethylamide] | 3.4 |
| Cc1nc2cnccc2n1CN1CCN(S(=O)(=O)c2cn(C(=O)N(C)C)c3cc(-c4ccc(F)cc4)ccc23)CC1 [6-(4-Fluoro-phenyl)-3-[4-(2-methyl-imidazo[4,5-c]pyridin-1-ylmethyl)-piperazine-1-sulfonyl]-indole-1-carboxylic acid dimethylamide] | 1.2 |
| Cc1nc2cnccc2n1CC1CCN(C(=O)c2cn(C(=O)N(C)C)c3cc(-c4ccc(F)cc4)ccc23)CC1 [6-(4-Fluoro-phenyl)-3-[4-(2-methyl-imidazo[4,5-c]pyridin-1-ylmethyl)-piperidine-1-carbonyl]-indole-1-carboxylic acid dimethylamide] | 2.5 |
| Cc1nc2cnccc2n1Cc1csc(C(=O)c2cn(C(=O)N(C)C)c3cc(-c4ccc(F)cc4)ccc23)n1 [6-(4-Fluoro-phenyl)-3-[4-(2-methyl-imidazo[4,5-c]pyridin-1-ylmethyl)-thiazole-2-carbonyl]-indole-1-carboxylic acid dimethylamide] | 39 |
| Cc1nc2ccncc2n1Cc1ccc(C(=O)c2cn(C(=O)N(C)C)c3cc(-c4ccc(F)cc4)ccc23)cc1 [6-(4-Fluoro-phenyl)-3-[4-(2-methyl-imidazo[4,5-c]pyridin-3-ylmethyl)-benzoyl]-indole-1-carboxylic acid dimethylamide] | 610 |
| Cc1nc2ccn(Cc3ccc(C(=O)c4cn(C(=O)N(C)C)c5cc(-c6ccc(F)cc6)ccc45)cc3)cc-2n1 [6-(4-Fluoro-phenyl)-3-[4-(2-methyl-imidazo[4,5-c]pyridin-5-ylmethyl)-benzoyl]-indole-1-carboxylic acid dimethylamide] | > 1000 |
| Cc1nc2cnccc2n1CCN1CCN(S(=O)(=O)c2cn(C(=O)N(C)C)c3cc(-c4ccc(F)cc4)ccc23)CC1 [6-(4-Fluoro-phenyl)-3-{4-[2-(2-methyl-imidazo[4,5-c]pyridin-1-yl)-ethyl]-piperazine-1-sulfonyl}-indole-1-carboxylic acid dimethylamide] | 53 |
| COC(=O)c1cc(Br)cc2c1c(C(=O)c1ccc(Cn3c(C)nc4cnccc43)cc1)cn2C(=O)N(C)C [6-Bromo-1-dimethylcarbamoyl-3-[4-(2-methyl-imidazo[4,5-c]pyridin-1-ylmethyl)-benzoyl]-1H-indole-4-carboxylic acid methyl ester] | 1.4 |
| C#Cc1cccc2[nH]cc(C(=O)c3ccc(Cn4c(C)nc5cnccc54)c(F)c3)c12 [(4-Ethynyl-1H-indol-3-yl)-[3-fluoro-4-(2-methyl-imidazo[4,5-c]pyridin-1-ylmethyl)-phenyl]-methanone] | 2.2 |
| Cc1nc2cnccc2n1Cc1ccc(C(=O)c2c[nH]c3c(OCc4ccccc4)cccc23)cc1 [(7-Benzyloxy-1H-indol-3-yl)-[4-(2-methyl-imidazo[4,5-c]pyridin-1-ylmethyl)-phenyl]-methanone] | 12 |
| Cc1nc2cnccc2n1Cc1ccc(C(=O)c2cn(C(=O)N(C)C)c3cccc(OC(=O)N(C)C)c23)cc1F [Dimethyl-carbamic acid 1-dimethylcarbamoyl-3-[3-fluoro-4-(2-methyl-imidazo[4,5-c]pyridin-1-ylmethyl)-benzoyl]-1H-indol-4-yl ester] | 31 |
